From patent EP0092060A1, “Pharmaceutical products in sustained-release form, and their preparation process” (LABORATORI PROPHIN Industria Chimica Farmaceutica S.p.A., priority 1982, dated 1983)

Assays:
[1] = cited from earlier work
[2] = Pharmacokinetic parameters obtained in man, used to calculate the optimum hourly dose; details: human, in vivo, read-out: elimination constant (Kel) (converted)
[3] = Drug release (dissolution), USP XX paddle apparatus, distilled water at 37°C; assay type: physicochemical; details: for time to total release: drug simply pasted/mixed into the polymer support matrix (uncoated nuclei); for release kinetics / release rate: nuclei covered with the diffusion regulating film; for release rate: during the release period; for % drug released: distilled water at 37°C, average of 6 determinations; for influence of the second film on the drug diffusion rate: nuclei with first and second films compared with first film only
Procedure: The Tiapride release was monitored for the uncoated nuclei, the nuclei with the first film applied, and the finished nuclei also comprising the second film.
A USP XX paddle apparatus was used, the dissolving medium being distilled water at 37°C.
The obtained results given hereinafter are the average of 6 determinations.
The Diltiazem release rate was measured on noncoated nuclei, nuclei coated with the first film and the finalized form with the second film coating.
A USP XX paddle apparatus was used and the dissolving medium was distilled water at 37°C.

In the case of CCN(CC)CCNC(=O)c1cc(S(C)(=O)=O)ccc1OC.Cl [Tiapride, N-diethylaminoethyl-2-methoxy-5-methylsulphonyl-benzamide hydrochloride], the “hematic peak after administering 100 mg (Cp)” value ([1]; in man, 100 mg) is listed as 0.8 µg/mL, the half life ([1]; in man) is listed as 4 h and the therapeutic range ([1]; in man) is listed as 0.6 - 0.9 mg/l of plasma. The k el [2] was 4.81e-05 s⁻¹, the “time to total release” value [3] was “totally released within two hours” and the release kinetics [3] was “zero order”. For the same molecule, the release rate [3] was 10 to 15 mg/h, the “% drug released” value ([3]; nuclei covered with the first and second films, 1 hour) was 0% and the “% drug released” value ([3]; nuclei covered with the first and second films, 2 hours) was 1%. The “% drug released” value ([3]; nuclei covered with the first and second films, 3 hours) was 16%, the “% drug released” value ([3]; nuclei covered with the first and second films, 4.5 hours) was 34% and the “% drug released” value ([3]; nuclei covered with the first and second films, 5.5 hours) was 44%. For the same molecule, the “% drug released” value ([3]; nuclei covered with the first and second films, 6.5 hours) was 57%, the “% drug released” value ([3]; nuclei covered with the first and second films, 7.5 hours) was 71% and the “% drug released” value ([3]; nuclei covered with the first and second films, 8.5 hours) was 83%. For the same molecule, the “% drug released” value ([3]; nuclei covered with the first film, 1 hour) was 2%, the “% drug released” value ([3]; nuclei covered with the first film, 2 hours) was 4% and the “% drug released” value ([3]; nuclei covered with the first film, 3 hours) was 14%. The “% drug released” value ([3]; nuclei covered with the first film, 3.5 hours) was 19.3%, the “% drug released” value ([3]; nuclei covered with the first film, 4.5 hours) was 34% and the “% drug released” value ([3]; nuclei covered with the first film, 5 hours) was 47%. The “% drug released” value ([3]; nuclei covered with the first film, 6 hours) was 57%, the “% drug released” value ([3]; nuclei covered with the first film, 7 hours) was 69% and the “% drug released” value ([3]; nuclei covered with the first film, 8 hours) was 83%. The “influence of the second film on the drug diffusion rate” value [3] was “practically no influence”, the “% drug released” value ([3]; uncoated nuclei, 15 min) was 37.8% and the “% drug released” value ([3]; uncoated nuclei, 30 min) was 51.6%. The “% drug released” value ([3]; uncoated nuclei, 60 min) was 71.1%, the “% drug released” value ([3]; uncoated nuclei, 90 min) was 80.3% and the “% drug released” value ([3]; uncoated nuclei, 120 min) was 86.0%.

In the case of COc1ccc([C@@H]2Sc3ccccc3N(CCN(C)C)C(=O)[C@@H]2OC(C)=O)cc1 [Diltiazem], the “distribution volume (Vd)” value ([1]; humans, unit not given) is listed as 1065, the half life ([1]; in man) is listed as 4 h and the k el [2] is listed as 3.42e-05 s⁻¹. For the same molecule, the “time to total release” value [3] was “totally released within two hours”, the release kinetics [3] was “on the order of zero” and the release rate [3] was 10 to 15 mg/h. The “influence of the second film on the drug diffusion rate” value [3] was “practically no effect”.
